Test results from patent US10941136B2, “Quinazoline derivative or its salt and pharmaceutical composition comprising the same” (YUHAN CORPORATION, priority 2016, dated 2021).

How the values were obtained:
Format in all cases: biochemical
PI3Kδ (p110δ/p85α)(h) = molecular target: T1, PI3Kδ (p110δ/p85α)(h) (Homo sapiens, UniProt O00329); experiment: PI3K-HTRF in vitro enzyme assay, PI3Kδ; settings: enzyme 0.1 μg/ml
T1 construct: purchased Upstate (Millipore Co, Billerica, Mass., USA) #14˜604
Experimental: (§1) The compounds of the present invention were tested for the activity of phosphatidylinositol 3-kinase delta (PI3K) by using a PI3K enzyme-homogeneous time resolved fluorescence (PI3K-HTRF) kit, which is available under Upstate™ kit (Millipore Co, Billerica, Mass., USA). This kit system measures indirectly the amount of PIP3 produced via PI3K by detecting competitive inhibition of fluorescence complex formation.
(§2) There were used three kinds of buffer solutions, i.e., reaction buffer, stop solution, and detection solution. The reaction buffer was prepared by diluting Reaction Buffer (provided in Update™ kit) with distilled water 4 times and adding DTT to a concentration of 5 mM. The stop solution was prepared by combining STOP A and B Solutions (provided in Update™ kit) in a ratio of 3:1. The detection solution was prepared by combining Detection Solution A, B and C (provided in Update™ kit) in a ratio of 1:1:18. A substrate solution and an ATP solution were prepared by diluting the 1 mM PIP2 (phosphatidyl inositol 4,5 bi-phosphate) stock solution (provided in Update™ kit) and 10 mM ATP (Sigma-aldrich Co., St. Louis, Mo., USA) stock solution with the reaction buffer to concentrations of 20 μM and 40 μM, respectively. An enzyme solution was prepared by diluting PI3Kδ (#14˜604; Upstate™ kit) with the substrate solution to the concentration of 0.2 μg/ml (final reaction concentration: 0.1 μg/ml).
(§3) The test groups were prepared by dissolving each compound in 100% DMSO at 40× the final concentration and then diluting 10-fold with the reaction buffer. 5 μl of each diluted test group solution was transferred to a 384 well low flange white flat bottom microplate (#3572, Corning Life Sciences, Lowell, Mass., USA). We performed centrifuge (1 minute, 1000 rpm) and shaking for 2 minutes after every solution-adding step in this experiment. Next, 10 μl of the enzyme solution was added to each well. A mixed solution of the substrate solution (10 μl) plus 5 μl of the 100% DMSO diluted solution without test compound (i.e., 10% DMSO solution) was used as a negative control. And also, a mixed solution of enzyme solution (10 μl) plus 5 μl of the 100% DMSO diluted solution without test compound (i.e., 10% DMSO solution) was used as a positive control. This plate was pre-incubated for 10 minutes in a 25° C. incubator. After the pre-incubation, the phosphorylation reaction was induced by adding 5 μl of the ATP solution and the plate was incubated for 30 minutes in a 25° C. incubator. This enzyme reaction was stopped by 5 μl of the stop solution and then 5 μl of the detection solution was added thereto. To obtain enough fluorescence responses, the plate was incubated for 2 hours in a 25° C. incubator protected from light.
(§4) The time-resolved fluorescence resonance energy transfer (TR-FRET) rate was measured (emission wavelength: 665 nm, 620 nm, excitation wavelength: 313 nm) by using a Flexstation3 Micro plate reader (Molecular Devices, USA). TR-FRET Rate was calculated based on the Equation 1 and using these TR-FRET Rates, % inhibition rate of each compound was calculated based on the Equation 2. The IC50 values, i.e., the concentration of a test compound that inhibits 50% of PI3Kδ activity in vitro, are generated by Softmax program (Molecular Devices, USA). TR-FRET Rate=(Signal at 665 nm emission wavelength/Signal at 620 nm emission wavelength)×10000 <Equation 1> % Inhibition Rate=[(TR-FRET Rate of the test group−TR-FRET Rate of the positive control group)/(TR-FRET Rate of the negative control group−TR-FRET Rate of the positive control group)]×100 <Equation 2>

PI3Kβ (p110β/p85α)(h) = molecular target: T2, PI3Kβ (p110β/p85α)(h) (Homo sapiens, UniProt P42338); experiment: PI3K-HTRF in vitro enzyme assay, PI3Kβ; settings: enzyme 0.4 μg/ml
T2 construct: purchased Upstate (Millipore Co) #14-603
Experimental: as §1, §2, §3, §4
(§5) The compounds of the present invention were assayed for the activities of PI3K subtypes, i.e., PI3Kα, PI3Kβ and PI3Kγ, using the same procedures as in Experimental Example 1. […]

PI3Kγ (p120γ)(h) = molecular target: T3, PI3Kγ (p120γ)(h) (Homo sapiens, UniProt P48736); experiment: PI3K-HTRF in vitro enzyme assay, PI3Kγ; settings: enzyme 0.4 μg/ml
T3 construct: purchased Upstate (Millipore Co) #14-558
Experimental: as §1, §2, §3, §4, §5

PI3Kα (p110α/p85α)(h) = molecular target: T4, PI3Kα (p110α/p85α)(h) (Homo sapiens, UniProt P42336); experiment: PI3K-HTRF in vitro enzyme assay, PI3Kα; settings: enzyme 0.1 μg/ml
T4 construct: purchased Upstate (Millipore Co) #14-602
Experimental: as §1, §2, §3, §4, §5

T3 sequence (P48736 whole entry): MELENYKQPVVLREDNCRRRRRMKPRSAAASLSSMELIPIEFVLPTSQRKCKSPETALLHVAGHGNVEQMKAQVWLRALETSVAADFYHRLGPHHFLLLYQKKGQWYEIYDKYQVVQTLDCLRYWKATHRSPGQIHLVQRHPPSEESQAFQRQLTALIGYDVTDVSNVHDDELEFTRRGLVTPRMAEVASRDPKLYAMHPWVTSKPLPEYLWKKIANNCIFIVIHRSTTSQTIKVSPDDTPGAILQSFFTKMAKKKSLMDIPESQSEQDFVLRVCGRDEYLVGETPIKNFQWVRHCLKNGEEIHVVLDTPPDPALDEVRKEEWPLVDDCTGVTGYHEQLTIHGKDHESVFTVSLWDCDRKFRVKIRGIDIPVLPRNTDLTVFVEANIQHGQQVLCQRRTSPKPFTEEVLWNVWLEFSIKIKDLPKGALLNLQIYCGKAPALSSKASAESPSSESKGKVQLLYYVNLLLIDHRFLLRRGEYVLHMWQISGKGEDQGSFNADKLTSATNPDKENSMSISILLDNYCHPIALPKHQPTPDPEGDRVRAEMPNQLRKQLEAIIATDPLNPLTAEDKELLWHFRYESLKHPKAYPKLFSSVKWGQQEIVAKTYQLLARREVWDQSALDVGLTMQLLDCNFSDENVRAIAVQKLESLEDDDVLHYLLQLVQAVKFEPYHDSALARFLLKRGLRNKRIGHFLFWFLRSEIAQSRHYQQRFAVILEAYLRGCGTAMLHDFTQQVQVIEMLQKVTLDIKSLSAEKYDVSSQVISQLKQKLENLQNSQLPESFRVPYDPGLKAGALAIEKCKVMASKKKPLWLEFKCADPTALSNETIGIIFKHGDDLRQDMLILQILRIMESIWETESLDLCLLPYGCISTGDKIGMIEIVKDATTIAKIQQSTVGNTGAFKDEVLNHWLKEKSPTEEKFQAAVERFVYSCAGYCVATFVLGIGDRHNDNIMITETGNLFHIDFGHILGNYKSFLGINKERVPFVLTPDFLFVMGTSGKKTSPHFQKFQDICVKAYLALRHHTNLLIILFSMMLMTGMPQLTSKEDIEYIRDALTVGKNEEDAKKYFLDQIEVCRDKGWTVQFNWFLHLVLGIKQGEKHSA
T4 sequence (P42336 whole entry): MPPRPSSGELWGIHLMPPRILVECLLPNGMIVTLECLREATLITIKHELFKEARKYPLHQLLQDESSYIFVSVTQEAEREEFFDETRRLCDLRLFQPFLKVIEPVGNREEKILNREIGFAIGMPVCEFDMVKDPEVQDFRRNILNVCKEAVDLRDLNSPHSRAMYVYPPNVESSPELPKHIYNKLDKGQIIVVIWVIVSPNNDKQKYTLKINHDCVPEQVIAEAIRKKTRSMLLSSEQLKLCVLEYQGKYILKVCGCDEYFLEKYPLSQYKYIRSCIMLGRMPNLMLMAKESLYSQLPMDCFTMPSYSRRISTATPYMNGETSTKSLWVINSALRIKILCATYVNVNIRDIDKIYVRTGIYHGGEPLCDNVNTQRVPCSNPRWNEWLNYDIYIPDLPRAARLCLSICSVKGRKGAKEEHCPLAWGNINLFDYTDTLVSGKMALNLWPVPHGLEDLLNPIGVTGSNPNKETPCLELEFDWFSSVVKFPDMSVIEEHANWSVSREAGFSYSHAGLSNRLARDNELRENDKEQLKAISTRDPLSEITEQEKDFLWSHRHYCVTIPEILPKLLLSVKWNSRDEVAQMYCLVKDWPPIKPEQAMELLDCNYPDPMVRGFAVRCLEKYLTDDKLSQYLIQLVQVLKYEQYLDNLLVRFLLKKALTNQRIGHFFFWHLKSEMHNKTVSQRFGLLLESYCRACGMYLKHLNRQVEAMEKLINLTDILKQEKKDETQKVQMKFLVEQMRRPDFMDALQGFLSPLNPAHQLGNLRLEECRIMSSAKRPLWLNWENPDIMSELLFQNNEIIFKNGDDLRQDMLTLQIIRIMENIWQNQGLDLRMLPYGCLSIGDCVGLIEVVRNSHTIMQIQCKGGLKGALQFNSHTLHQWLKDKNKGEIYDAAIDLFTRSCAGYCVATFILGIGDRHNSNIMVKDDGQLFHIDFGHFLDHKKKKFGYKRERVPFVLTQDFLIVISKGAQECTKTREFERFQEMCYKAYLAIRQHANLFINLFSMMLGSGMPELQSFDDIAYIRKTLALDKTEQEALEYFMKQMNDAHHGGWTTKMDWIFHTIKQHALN
T4 sequence (P27986 whole entry partner): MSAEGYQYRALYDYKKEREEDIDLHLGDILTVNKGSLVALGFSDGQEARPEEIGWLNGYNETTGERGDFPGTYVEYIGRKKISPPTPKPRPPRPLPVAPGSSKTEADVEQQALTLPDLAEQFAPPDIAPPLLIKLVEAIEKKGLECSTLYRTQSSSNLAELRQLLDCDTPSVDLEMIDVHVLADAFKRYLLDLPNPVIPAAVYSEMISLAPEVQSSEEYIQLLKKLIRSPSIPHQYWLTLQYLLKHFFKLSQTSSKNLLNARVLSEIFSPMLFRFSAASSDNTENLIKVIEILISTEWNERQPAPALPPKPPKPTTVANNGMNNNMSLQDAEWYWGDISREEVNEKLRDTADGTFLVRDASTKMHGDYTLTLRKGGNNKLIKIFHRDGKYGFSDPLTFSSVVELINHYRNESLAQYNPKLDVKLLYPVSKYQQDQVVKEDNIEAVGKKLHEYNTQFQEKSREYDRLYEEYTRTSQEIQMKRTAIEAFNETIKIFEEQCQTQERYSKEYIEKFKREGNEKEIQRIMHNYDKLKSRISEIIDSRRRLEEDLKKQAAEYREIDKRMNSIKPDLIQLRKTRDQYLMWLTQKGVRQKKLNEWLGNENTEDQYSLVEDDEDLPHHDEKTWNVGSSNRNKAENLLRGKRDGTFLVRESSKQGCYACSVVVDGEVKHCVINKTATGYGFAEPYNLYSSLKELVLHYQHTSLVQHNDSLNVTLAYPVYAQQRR
T2 sequence (P42338 whole entry): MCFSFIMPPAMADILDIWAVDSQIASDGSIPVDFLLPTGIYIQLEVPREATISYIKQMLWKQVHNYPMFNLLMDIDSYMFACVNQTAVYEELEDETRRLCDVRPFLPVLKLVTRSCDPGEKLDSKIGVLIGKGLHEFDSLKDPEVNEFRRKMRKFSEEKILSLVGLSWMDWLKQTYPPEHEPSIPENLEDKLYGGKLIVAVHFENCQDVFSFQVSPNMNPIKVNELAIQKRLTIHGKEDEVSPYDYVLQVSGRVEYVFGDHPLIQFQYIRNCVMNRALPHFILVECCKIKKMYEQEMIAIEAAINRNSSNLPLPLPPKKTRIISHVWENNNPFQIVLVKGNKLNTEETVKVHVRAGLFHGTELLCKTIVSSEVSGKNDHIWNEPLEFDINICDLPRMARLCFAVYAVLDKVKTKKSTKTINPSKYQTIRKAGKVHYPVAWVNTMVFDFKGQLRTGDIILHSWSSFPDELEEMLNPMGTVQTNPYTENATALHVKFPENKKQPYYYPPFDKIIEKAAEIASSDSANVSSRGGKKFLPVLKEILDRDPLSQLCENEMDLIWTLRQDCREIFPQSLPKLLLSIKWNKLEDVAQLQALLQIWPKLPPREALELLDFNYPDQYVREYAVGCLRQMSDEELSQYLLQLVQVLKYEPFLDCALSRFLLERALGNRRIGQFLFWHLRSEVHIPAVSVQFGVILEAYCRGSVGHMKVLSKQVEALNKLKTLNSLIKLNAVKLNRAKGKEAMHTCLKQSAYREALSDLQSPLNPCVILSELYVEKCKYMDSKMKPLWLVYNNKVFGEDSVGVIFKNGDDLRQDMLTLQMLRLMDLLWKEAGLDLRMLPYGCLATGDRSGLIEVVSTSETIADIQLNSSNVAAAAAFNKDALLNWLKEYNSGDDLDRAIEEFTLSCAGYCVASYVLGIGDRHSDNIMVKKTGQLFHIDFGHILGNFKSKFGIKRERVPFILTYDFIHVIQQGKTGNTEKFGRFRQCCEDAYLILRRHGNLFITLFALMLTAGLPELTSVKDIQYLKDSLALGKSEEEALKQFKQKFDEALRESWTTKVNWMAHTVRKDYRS
T2 sequence (P27986 whole entry partner): as the sequence (P27986 whole entry partner) above
T1 sequence (O00329 whole entry): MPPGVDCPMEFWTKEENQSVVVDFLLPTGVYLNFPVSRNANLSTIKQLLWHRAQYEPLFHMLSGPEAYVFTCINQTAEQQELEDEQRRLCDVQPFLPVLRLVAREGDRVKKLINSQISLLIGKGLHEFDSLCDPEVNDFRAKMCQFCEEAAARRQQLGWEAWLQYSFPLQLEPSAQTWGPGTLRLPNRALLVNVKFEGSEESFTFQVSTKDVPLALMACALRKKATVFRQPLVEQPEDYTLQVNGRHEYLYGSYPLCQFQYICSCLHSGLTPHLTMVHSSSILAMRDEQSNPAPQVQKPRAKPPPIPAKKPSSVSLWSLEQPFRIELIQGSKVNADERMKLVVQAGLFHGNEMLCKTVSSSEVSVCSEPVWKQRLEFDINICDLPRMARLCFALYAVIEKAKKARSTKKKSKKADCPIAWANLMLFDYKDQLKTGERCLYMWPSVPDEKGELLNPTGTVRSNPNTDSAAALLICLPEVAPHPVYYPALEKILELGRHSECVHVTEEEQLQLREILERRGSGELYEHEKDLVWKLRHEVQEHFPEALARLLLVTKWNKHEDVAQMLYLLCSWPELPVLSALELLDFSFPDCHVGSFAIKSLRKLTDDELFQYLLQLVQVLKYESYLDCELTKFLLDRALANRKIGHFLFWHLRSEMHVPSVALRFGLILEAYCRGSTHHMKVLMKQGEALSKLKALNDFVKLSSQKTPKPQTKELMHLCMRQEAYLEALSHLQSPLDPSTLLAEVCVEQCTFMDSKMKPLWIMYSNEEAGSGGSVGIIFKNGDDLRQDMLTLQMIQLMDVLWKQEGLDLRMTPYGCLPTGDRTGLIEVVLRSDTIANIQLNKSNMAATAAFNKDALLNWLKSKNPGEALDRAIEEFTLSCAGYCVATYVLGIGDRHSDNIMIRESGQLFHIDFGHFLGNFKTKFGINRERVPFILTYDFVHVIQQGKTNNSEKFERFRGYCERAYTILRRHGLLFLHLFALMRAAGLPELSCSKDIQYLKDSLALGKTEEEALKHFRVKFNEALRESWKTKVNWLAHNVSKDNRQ
T1 sequence (P27986 whole entry partner): as the sequence (P27986 whole entry partner) above

Structure (SMILES) | IC50 (PI3Kδ (p110δ/p85α)(h)) | IC50 (PI3Kβ (p110β/p85α)(h)) | IC50 (PI3Kγ (p120γ)(h)) | IC50 (PI3Kα (p110α/p85α)(h))
COc1ncc(-c2cccc3cc([C@H](C)Nc4ncnc5ccc(C#N)cc45)n(-c4ccccc4)c(=O)c23)cn1 [Example 33, (S)-4-((1-(8-(2-methoxypyrimidin-5-yl)-1-oxo-2-phenyl-1,2-dihydroisoquinolin-3-yl)ethyl)amino)quinazoline-6-carbonitrile] | 10 nM | 6690 nM | 155 nM | 1240 nM
C[C@H](Nc1ncnc2ccc(C#N)cc12)c1cc2cccc(-c3cnc(C4CC4)nc3)c2c(=O)n1-c1ccccc1 [Example 37, (S)-4-((1-(8-(2-cyclopropylpyrimidin-5-yl)-1-oxo-2-phenyl-1,2-dihydroisoquinolin-3-yl)ethyl)amino)quinazoline-6-carbonitrile] | 10 nM | 8760 nM | 67 nM | 418 nM
Nc1ncc(-c2cccc3nc([C@@H](Nc4ncnc5cccc(F)c45)C4CC4)n(-c4ccccc4)c(=O)c23)cn1 [Example 31, (S)-5-(2-aminopyrimidin-5-yl)-2-(cyclopropyl((5-fluoroquinazolin-4-yl)amino)methyl)-3-phenylquinazolin-4(3H)-one] | 3 nM | 9310 nM | 442 nM | 652 nM
C[C@H](Nc1ncnc2ccc(C#N)cc12)c1nc2cccc(-c3cncnc3)c2c(=O)n1C1CC1 [Example 17, (S)-4-((1-(3-cyclopropyl-4-oxo-5-(pyrimidin-5-yl)-3,4-dihydroquinazolin-2-yl)ethyl)amino)quinazoline-6-carbonitrile] | 10 nM | 3820 nM | 947 nM | 2640 nM
CCOc1ncc(-c2cccc3nc([C@H](C)Nc4ncnc5ccc(C#N)cc45)n(C4CC4)c(=O)c23)cn1 [Example 19, (S)-4-((1-(3-cyclopropyl-5-(2-ethoxypyrimidin-5-yl)-4-oxo-3,4-dihydroquinazolin-2-yl)ethyl)amino)quinazoline-6-carbonitrile] | 21 nM | 6730 nM | 593 nM | 2020 nM
CC[C@H](Nc1ncnc2ccc(C#N)cc12)c1nc2cccc(-c3cncnc3)c2c(=O)n1C1CC1 [Example 20, (S)-4-((1-(3-cyclopropyl-4-oxo-5-(pyrimidin-5-yl)-3,4-dihydroquinazolin-2-yl)propyl)amino)quinazoline-6-carbonitrile] | 15 nM | 8950 nM | 819 nM | 2440 nM
C[C@H](Nc1ncnc2ccc(C#N)cc12)c1cc2cccc(-c3cnc(N(C)C)nc3)c2c(=O)n1-c1ccccc1 [Example 35, (S)-4-((1-(8-(2-(dimethylamino)pyrimidin-5-yl)-1-oxo-2-phenyl-1,2-dihydroisoquinolin-3-yl)ethyl)amino)quinazoline-6-carbonitrile] | 25 nM | 5310 nM | 93 nM | 673 nM
C[C@H](Nc1ncnc2ccc(C#N)cc12)c1cc2cccc(-c3cncnc3)c2c(=O)n1-c1ccccc1 [Example 32, (S)-4-((1-(1-oxo-2-phenyl-8-(pyrimidin-5-yl)-1,2-dihydroisoquinolin-3-yl)ethyl)amino)quinazoline-6-carbonitrile] | 2 nM | 4800 nM | 416 nM | 1730 nM
CCC[C@H](Nc1ncnc2ccc(C#N)cc12)c1nc2cccc(-c3cnc(N)nc3)c2c(=O)n1-c1ccccc1 [Example 12, (S)-4-((1-(5-(2-aminopyrimidin-5-yl)-4-oxo-3-phenyl-3,4-dihydroquinazolin-2-yl)butyl)amino)quinazoline-6-carbonitrile] | 6 nM | 3060 nM | 108 nM | 621 nM
CCOc1ncc(-c2cccc3cc([C@H](CC)Nc4ncnc5ccc(C#N)cc45)n(-c4ccccc4)c(=O)c23)cn1 [Example 41, (S)-4-((1-(8-(2-ethoxypyrimidin-5-yl)-1-oxo-2-phenyl-1,2-dihydroisoquinolin-3-yl)propyl)amino)quinazoline-6-carbonitrile] | 2 nM | 9380 nM | 489 nM | 909 nM
COc1ncc(-c2cccc3nc([C@H](C)Nc4ncnc5ccc(C#N)cc45)n(C4CC4)c(=O)c23)cn1 [Example 18, (S)-4-((1-(3-cyclopropyl-5-(2-methoxypyrimidin-5-yl)-4-oxo-3,4-dihydroquinazolin-2-yl)ethyl)amino)quinazoline-6-carbonitrile] | 19 nM | 5790 nM | 771 nM | 2710 nM
CC[C@H](Nc1ncnc2ccc(C#N)cc12)c1nc2cccc(-c3cnc(N(C)C)nc3)c2c(=O)n1-c1ccccc1 [Example 7, (S)-4-((1-(5-(2-(dimethylamino)pyrimidin-5-yl)-4-oxo-3-phenyl-3,4-dihydroquinazolin-2-yl)propyl)amino)quinazoline-6-carbonitrile] | 20 nM | – | 747 nM | 638 nM
CC[C@H](Nc1ncnc2ccc(C#N)cc12)c1cc2cccc(-c3cncnc3)c2c(=O)n1-c1ccccc1 [Example 39, (S)-4-((1-(1-oxo-2-phenyl-8-(pyrimidin-5-yl)-1,2-dihydroisoquinolin-3-yl)propyl)amino)quinazoline-6-carbonitrile] | 1 nM | – | 195 nM | 712 nM
C[C@H](Nc1ncnc2cccc(F)c12)c1nc2cccc(-c3cnc(N)nc3)c2c(=O)n1-c1ccccc1 [Example 23, (S)-5-(2-aminopyrimidin-5-yl)-2-(1-((5-fluoroquinazolin-4-yl)amino)ethyl)-3-phenylquinazolin-4(3H)-one] | 19 nM | – | 1390 nM | 2730 nM
CCOc1ncc(-c2cccc3nc([C@H](CC)Nc4ncnc5ccc(C#N)cc45)n(-c4ccccc4)c(=O)c23)cn1 [Example 6, (S)-4-((1-(5-(2-ethoxypyrimidin-5-yl)-4-oxo-3-phenyl-3,4-dihydroquinazolin-2-yl)propyl)amino)quinazoline-6-carbonitrile] | 15 nM | – | 1960 nM | 1510 nM
Cc1ncc(-c2cccc3nc([C@H](C)Nc4ncnc5ccc(C#N)cc45)n(-c4ccccc4)c(=O)c23)cn1 [Example 3, (S)-4-((1-(5-(2-methylpyrimidin-5-yl)-4-oxo-3-phenyl-3,4-dihydroquinazolin-2-yl)ethyl)amino)quinazoline-6-carbonitrile] | 22 nM | – | 262 nM | 1770 nM
CC[C@H](Nc1ncnc2cccc(F)c12)c1nc2cccc(-c3cnc(C)nc3)c2c(=O)n1-c1ccccc1 [Example 27, (S)-2-(1-((5-fluoroquinazolin-4-yl)amino)propyl)-5-(2-methylpyrimidin-5-yl)-3-phenylquinazolin-4(3H)-one] | 27 nM | – | 4980 nM | 7260 nM
O=c1c2c(-c3cncnc3)cccc2nc([C@@H](Nc2ncnc3cccc(F)c23)C2CC2)n1-c1ccccc1 [Example 30, (S)-2-(cyclopropyl((5-fluoroquinazolin-4-yl)amino)methyl)-3-phenyl-5-(pyrimidin-5-yl)quinazolin-4(3H)-one] | 19 nM | – | 2640 nM | 5300 nM
